In brackets after ≈: the same amount, converted by molar mass. Activity calls are given as the source filed them. No cut-off for these calls is given here.
Key:
[1] = Toxicity in human naive Th1 cell assessed as reduction in cell viability at 1 to 10000 nM; format: cell-based; details: 10 µM, dose 1-10000 nM
[2] = Inhibition of JAK/STAT signaling pathway in human CD4+ T cell assessed as inhibition of IL-4 stimulated STAT6 phosphorylation preincubated for 20 to 60 mins followed by IL-4 stimulation measured after 15 mins by flow cytometry analysis; format: cell-based
Th2 cell [3] = assay: Inhibition of human naive Th2 cell differentiation assessed as decrease in IL-5 production measured after 5 days by MSD assay; format: functional, cell-based; details: time 5.0 day
Th1 cell = assay: Inhibition of human naive Th1 cell differentiation assessed as decrease in IFNg production measured after 5 days by MSD assay; format: functional, cell-based; details: dose 1-10000 nM, time 5.0 day
[4] = Inhibition of JAK/STAT signaling pathway in human CD14-positive cell monocytes isolated from human PBMC assessed as inhibition of IL-13 stimulated STAT6 phosphorylation preincubated for 20 to 60 mins followed by IL-13 stimulation measured after 15 mins by flow cytometry analysis; format: cell-based
Th2 cell [5] = assay: Inhibition of human naive Th2 cell differentiation assessed as decrease in IL-13 production measured after 5 days by MSD assay; format: functional, cell-based; details: time 5.0 day
Th17 = assay: Inhibition of human memory-derived Th17 cell differentiation assessed as decrease in IL-17 production measured after 5 days by MSD assay; format: functional, cell-based; details: time 5.0 day
Th2 cell [6] = assay: Inhibition of human naive Th2 cell differentiation assessed as decrease in IL-4 production measured after 5 days by MSD assay; format: functional, cell-based; details: dose 1-10000 nM, time 5.0 day
[7] = Toxicity in human naive Th2 cell assessed as reduction in cell viability at 1 to 10000 nM; format: cell-based; details: 10 µM, dose 1-10000 nM
CD4+ T cell = assay: Antiinflammatory activity in human CD4+ T cell assessed as reduction in CD25 expression measured after 5 days by eFluor780 staining based flow cytometry analysis; format: functional; details: dose 1-10000 nM, time 5.0 day
[8] = Toxicity in human CD4+ T cell assessed as reduction in cell viability measured after 5 days by eFluor780 staining based flow cytometry analysis; details: 120 h, dose 1-10000 nM, time 5 day
[9] = Inhibition of JAK/STAT signaling pathway in human CD14-positive cell monocytes isolated from human PBMC assessed as inhibition of IL-4 stimulated STAT6 phosphorylation preincubated for 20 to 60 mins followed by IL-4 stimulation measured after 15 mins by flow cytometry analysis; format: cell-based
[10] = Toxicity in human memory-derived Th17 cells assessed as reduction in cell viability at 1 to 10000 nM; format: cell-based; details: th17, 10 µM, dose 1-10000 nM
[11] = Plasma protein binding in human assessed as free fraction; format: ADME, cell-free
[12] = Drug uptake in lung of rat at 0.020 micromol/kg, IT; format: ADME, tissue-based; details: in vivo, other, dose 0.02 µmol/kg
[13] = target: T1, Tyrosine-protein kinase JAK1 (Homo sapiens, UniProt P23458); assay: Inhibition of JAK1 in human CD14-positive cell monocytes isolated from human PBMC assessed as reduction in mature dendritic phenotype by measuring CD14 expression level at 100 nM measured after 5 days by CD14 APC staining based flow cytometry analysis; details: time 5.0 day
[14] = target: T1, Tyrosine-protein kinase JAK1; assay: Inhibition of JAK1 in human CD14-positive cell monocytes isolated from human PBMC assessed as reduction in dendritic cells development measured after 5 days by flow cytometry analysis; format: cell-based; details: dose 10-1000 nM, time 5.0 day
[15] = target: T2, Tyrosine-protein kinase JAK3 (Homo sapiens, UniProt P52333); assay: Inhibition of GST-tagged human recombinant JAK3 (781 to 1124 residues) expressed in insect cells
T2 sequence (P52333 whole entry): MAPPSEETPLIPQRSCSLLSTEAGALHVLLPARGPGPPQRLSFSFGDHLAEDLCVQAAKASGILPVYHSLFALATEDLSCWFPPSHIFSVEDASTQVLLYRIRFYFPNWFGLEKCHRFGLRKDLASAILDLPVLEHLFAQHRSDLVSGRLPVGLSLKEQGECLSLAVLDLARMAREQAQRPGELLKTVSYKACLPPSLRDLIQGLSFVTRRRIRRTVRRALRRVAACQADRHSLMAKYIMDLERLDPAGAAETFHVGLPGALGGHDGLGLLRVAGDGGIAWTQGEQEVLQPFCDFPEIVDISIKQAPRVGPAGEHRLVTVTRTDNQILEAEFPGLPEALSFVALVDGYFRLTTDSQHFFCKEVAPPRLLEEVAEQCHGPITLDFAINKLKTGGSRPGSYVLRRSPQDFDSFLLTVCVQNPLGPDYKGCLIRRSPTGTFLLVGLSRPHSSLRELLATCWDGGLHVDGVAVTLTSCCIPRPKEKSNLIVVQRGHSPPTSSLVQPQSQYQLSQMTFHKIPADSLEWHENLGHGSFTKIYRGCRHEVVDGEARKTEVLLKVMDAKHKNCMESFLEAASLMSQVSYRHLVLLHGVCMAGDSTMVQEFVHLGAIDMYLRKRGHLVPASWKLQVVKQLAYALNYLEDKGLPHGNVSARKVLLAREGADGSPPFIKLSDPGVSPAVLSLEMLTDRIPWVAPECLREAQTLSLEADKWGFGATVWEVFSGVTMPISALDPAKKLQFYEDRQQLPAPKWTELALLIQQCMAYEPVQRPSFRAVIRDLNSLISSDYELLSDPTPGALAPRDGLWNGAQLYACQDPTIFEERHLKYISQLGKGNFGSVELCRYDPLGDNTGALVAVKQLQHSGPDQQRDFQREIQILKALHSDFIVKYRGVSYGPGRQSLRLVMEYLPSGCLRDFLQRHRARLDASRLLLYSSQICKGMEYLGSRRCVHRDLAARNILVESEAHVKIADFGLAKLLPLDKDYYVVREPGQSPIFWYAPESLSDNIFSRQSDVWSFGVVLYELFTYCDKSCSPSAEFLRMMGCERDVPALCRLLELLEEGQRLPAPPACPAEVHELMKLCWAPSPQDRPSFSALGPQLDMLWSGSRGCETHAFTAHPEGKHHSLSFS

[16] = Inhibition of JAK/STAT signaling pathway in human U-937 cells assessed as inhibition of IL-4 stimulated STAT6 phosphorylation; format: cell-based
[17] = Drug uptake in lung of rat at 0.06 to 24.79 microg/kg via inhalation measured upto 24 hrs by LC-MS/MS analysis; format: ADME, tissue-based; details: in vivo, inhaled_or_intranasal, dose 0.06-24.79 µg/kg
[18] = AUC(0 to 24 hrs) in rat at 0.020 micromol/kg, IT; format: ADME; parameters: dose 0.02 µmol/kg, route it; details: in vivo, 0.02 µmol/kg
[19] = target: T1, Tyrosine-protein kinase JAK1; assay: Inhibition of GST-tagged human recombinant JAK1 (866 to 1154 residues) expressed in insect cells
[20] = Thermodynamic solubility of the compound in phosphate buffer at pH 7.4 measured after 24 hrs by HPLC-MS analysis; format: physicochemical; details: read-out: Therm_solubility
[21] = Volume of distribution at steady state in Han Wistar rat at 1 mg/kg, po or 0.5 mg/kg, iv; format: ADME, organism-based; details: in vivo
[22] = Distribution coefficient between 1-Octanol and aqueous phosphate buffer, logD of the compound at pH 7.4 by shake-flask method; format: physicochemical
[23] = Metabolic stability in human liver microsomes assessed as intrinsic clearance; format: ADME, Microsome; details: read-out: CLH
[24] = Metabolic stability in rat hepatocyte assessed as intrinsic clearance measured per 10^6 cells; format: ADME, cell-based; details: hepatocytes, read-out: CLH
[25] = Oral bioavailability in Han Wistar rat at 1 mg/kg; format: ADME, organism-based; details: in vivo
[26] = Volume of distribution at steady state in Han Wistar rat at 0.5 mg/kg, iv; format: ADME, organism-based; details: in vivo, read-out: Vdss
[27] = Solubility in phosphate buffer at pH 7.4; format: physicochemical
[28] = Terminal half life in Han Wistar rat at 1 mg/kg, po; format: ADME, organism-based; details: in vivo, read-out: beta t1/2 (converted)
[29] = Apparent permeability of compound across apical to basolateral side in human Caco-2 cells at pH 7.4; format: ADME, cell-based; details: Caco-2, pH 7.4
[30] = target: Non-receptor tyrosine-protein kinase TYK2 (Homo sapiens, UniProt P29597); assay: Inhibition of GST-tagged human recombinant TYK2 (833 to 1187 residues) expressed in insect cells
[31] = target: T1, Tyrosine-protein kinase JAK1; assay: Inhibition of JAK1 in human CD14-positive cell monocytes isolated from human PBMC assessed as reduction in mature dendritic phenotype by measuring CD11c expression level at 100 nM measured after 5 days by CD11c PE-CF594 staining based flow cytometry analysis; details: time 5.0 day
[32] = Metabolic stability in human hepatocyte assessed as intrinsic clearance measured per 10^6 cells; format: ADME, cell-based; details: hepatocytes, read-out: CLH
[33] = Inhibition of JAK/STAT signaling pathway in human U-937 cells assessed as inhibition of IL-13 stimulated STAT6 phosphorylation; format: cell-based
[34] = target: T1, Tyrosine-protein kinase JAK1; assay: Inhibition of N-terminal GST-tagged human recombinant JAK1 (866 to 1154 residues) expressed in insect cells using FITC-C6-KKHTDDGYMPMSPGVA-NH peptide as substrate incubated for 10 mins measured after 90 mins in presence of ATP by caliper mobility shift assay
[35] = target: Tyrosine-protein kinase JAK2 (Homo sapiens, UniProt O60674); assay: Inhibition of N-terminal GST-tagged human recombinant JAK2 (831 to 1132 residues) expressed in insect cells using 5FAM-GEEPLYWSFPAKKK-NH2 peptide as substrate incubated for 10 mins measured after 90 mins in presence of ATP by caliper mobility shift assay
[36] = target: T2, Tyrosine-protein kinase JAK3; assay: Inhibition of N-terminal GST-tagged human recombinant JAK3 (781 to 1124 residues) expressed in insect cells using 5FAM-GEEPLYWSFPAKKK-NH2 peptide as substrate incubated for 10 mins measured after 90 mins in presence of ATP by caliper mobility shift assay
[37] = Efflux ratio of apparent permeability across apical to basolateral side in human Caco-2 cells at pH 7.4; format: ADME, cell-based; details: Caco-2, pH 7.4
[38] = 1-octanol/aqueous phosphate buffer, read-out: logD

T1 sequence (P23458 whole entry): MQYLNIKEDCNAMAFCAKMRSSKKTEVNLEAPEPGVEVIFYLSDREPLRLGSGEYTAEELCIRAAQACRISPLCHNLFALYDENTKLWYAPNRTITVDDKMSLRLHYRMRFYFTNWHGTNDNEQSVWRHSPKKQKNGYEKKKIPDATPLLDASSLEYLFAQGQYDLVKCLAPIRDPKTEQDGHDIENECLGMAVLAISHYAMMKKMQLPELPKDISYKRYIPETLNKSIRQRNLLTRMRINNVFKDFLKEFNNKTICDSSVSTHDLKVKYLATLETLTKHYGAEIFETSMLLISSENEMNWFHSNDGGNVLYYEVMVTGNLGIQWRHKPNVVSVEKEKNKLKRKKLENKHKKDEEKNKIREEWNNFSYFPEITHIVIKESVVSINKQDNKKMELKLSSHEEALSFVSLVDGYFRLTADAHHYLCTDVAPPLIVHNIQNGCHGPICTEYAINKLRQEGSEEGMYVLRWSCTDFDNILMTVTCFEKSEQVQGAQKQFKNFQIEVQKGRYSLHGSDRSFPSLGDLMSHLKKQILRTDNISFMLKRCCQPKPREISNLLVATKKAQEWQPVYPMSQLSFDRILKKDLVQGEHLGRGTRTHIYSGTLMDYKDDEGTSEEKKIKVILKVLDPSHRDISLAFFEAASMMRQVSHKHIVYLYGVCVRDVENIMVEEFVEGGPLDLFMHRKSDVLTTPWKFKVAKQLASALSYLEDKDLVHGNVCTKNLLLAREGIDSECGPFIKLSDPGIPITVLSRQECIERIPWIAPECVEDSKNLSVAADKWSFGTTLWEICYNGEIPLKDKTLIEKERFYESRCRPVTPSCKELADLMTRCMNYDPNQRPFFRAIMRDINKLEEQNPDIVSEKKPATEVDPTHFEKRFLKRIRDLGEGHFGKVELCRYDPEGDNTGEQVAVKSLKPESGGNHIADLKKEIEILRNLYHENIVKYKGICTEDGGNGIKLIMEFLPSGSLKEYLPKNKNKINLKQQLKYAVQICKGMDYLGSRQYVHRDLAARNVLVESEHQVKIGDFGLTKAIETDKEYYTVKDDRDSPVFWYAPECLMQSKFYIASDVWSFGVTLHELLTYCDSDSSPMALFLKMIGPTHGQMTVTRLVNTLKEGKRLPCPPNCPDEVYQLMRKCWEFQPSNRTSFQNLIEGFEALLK
Chain of Tyrosine-protein kinase JAK2 (O60674 whole entry, the tested form may be a part): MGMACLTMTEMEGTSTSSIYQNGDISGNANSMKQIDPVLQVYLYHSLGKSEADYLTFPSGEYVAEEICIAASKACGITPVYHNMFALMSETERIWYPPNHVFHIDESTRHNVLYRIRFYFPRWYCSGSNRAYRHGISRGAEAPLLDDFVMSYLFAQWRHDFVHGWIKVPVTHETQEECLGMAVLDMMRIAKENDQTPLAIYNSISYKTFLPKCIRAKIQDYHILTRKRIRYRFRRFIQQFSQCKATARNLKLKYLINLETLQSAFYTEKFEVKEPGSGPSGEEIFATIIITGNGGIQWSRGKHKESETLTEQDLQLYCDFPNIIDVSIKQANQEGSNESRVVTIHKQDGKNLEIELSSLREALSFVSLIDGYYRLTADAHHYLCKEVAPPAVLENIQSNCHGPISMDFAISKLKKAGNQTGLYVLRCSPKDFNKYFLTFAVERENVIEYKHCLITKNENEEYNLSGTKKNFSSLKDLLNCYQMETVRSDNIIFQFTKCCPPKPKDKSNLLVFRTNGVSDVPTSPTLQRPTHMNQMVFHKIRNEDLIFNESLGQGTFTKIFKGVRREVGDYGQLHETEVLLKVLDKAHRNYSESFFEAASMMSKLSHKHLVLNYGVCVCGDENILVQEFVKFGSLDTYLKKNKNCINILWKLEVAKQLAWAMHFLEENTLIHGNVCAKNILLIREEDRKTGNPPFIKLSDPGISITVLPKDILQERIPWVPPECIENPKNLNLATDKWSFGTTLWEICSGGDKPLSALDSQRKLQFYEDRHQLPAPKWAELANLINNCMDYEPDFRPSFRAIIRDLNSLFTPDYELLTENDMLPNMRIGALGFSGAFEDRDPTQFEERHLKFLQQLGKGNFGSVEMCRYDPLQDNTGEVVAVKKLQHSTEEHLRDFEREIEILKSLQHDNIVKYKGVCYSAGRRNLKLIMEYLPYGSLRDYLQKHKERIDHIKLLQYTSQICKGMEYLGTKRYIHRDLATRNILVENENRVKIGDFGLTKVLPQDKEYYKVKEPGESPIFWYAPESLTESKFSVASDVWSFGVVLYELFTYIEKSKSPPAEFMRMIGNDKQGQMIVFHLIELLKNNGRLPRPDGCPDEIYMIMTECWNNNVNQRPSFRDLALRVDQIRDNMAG
Chain of Non-receptor tyrosine-protein kinase TYK2 (P29597 whole entry, the tested form may be a part): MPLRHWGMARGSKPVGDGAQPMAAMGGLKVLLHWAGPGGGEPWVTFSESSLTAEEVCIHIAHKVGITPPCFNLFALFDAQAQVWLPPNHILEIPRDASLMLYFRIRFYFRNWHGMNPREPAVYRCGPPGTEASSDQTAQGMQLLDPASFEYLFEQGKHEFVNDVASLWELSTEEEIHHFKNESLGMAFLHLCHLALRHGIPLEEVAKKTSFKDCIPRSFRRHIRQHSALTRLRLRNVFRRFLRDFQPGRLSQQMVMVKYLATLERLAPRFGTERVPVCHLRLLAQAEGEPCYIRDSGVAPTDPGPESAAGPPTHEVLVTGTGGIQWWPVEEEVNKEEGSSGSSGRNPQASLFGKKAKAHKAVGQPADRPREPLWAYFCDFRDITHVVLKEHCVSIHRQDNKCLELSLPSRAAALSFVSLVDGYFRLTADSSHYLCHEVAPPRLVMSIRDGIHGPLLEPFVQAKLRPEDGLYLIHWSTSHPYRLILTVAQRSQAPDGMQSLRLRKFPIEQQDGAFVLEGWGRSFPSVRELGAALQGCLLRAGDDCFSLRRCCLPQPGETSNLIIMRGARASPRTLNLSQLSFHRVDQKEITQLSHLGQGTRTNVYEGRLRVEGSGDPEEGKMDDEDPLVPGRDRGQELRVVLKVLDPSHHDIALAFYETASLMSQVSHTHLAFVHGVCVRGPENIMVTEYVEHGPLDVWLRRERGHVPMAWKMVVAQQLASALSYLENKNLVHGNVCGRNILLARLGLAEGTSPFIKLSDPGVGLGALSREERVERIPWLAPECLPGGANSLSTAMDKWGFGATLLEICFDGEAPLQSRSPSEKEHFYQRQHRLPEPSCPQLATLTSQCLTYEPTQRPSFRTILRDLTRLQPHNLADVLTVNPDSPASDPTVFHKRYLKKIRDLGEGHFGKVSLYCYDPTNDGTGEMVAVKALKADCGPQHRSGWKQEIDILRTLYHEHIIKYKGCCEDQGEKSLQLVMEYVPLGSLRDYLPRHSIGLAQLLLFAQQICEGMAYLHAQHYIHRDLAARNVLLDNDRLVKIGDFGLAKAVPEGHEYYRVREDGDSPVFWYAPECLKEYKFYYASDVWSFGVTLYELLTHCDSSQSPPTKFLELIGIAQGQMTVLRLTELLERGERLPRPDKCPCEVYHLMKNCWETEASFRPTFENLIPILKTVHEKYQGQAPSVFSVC

Row | Compound | Activity [1] | IC50 [2] | inhibition (Th2 cell [3]) | inhibition (Th1 cell) | IC50 [4] | inhibition (Th2 cell [5]) | inhibition (Th17) | inhibition (Th2 cell [6]) | Activity [7] | Activity (CD4+ T cell) | Activity [8] | IC50 [9] | Activity [10] | fraction unbound [11] | Drug uptake [12] | IC50 [16] | AUC(0-t) [18] | solubility thermodynamic at 24 h [20] | Vd [26] | solubility [27] | further results
1 | C[C@@H]1CCN(C(=O)CC#N)C[C@@H]1N(C)c1ncnc2[nH]ccc12 [TOFACITINIB] | Non-Toxic | 53 nM | Dose-Dependent Effect | Dose-Dependent Effect | 57 nM | Dose-Dependent Effect | Dose-Dependent Effect | Dose-Dependent Effect | Non-Toxic | Dose-Dependent Effect | Dose-Dependent Effect | 65 nM | Non-Toxic |  |  |  |  |  |  |  | 
2 | COC[C@H](C(=O)Nc1cccc2c(-c3nc(Nc4cccc(S(C)(=O)=O)c4F)ncc3F)c[nH]c12)N1CCN(C)CC1 [LONDAMOCITINIB] | Non-Toxic | 21 nM | Dose-Dependent Effect | Dose-Dependent Effect | 28 nM | Dose-Dependent Effect | Dose-Dependent Effect | Dose-Dependent Effect | Non-Toxic | Dose-Dependent Effect | Dose-Dependent Effect | 20 nM | Non-Toxic | 0.08 | Active | 24 nM | 8.6 µM·h | 7 µM (≈ 4.2 µg/mL) | 11 L/kg | 6 µM (≈ 3.6 µg/mL) | Activity [13]: Active; inhibition [14]: Dose-Dependent Effect; IC50 [15]: > 10000 nM; Drug uptake [17]: Active; IC50 [19]: 0.54 nM; Vdss [21]: 9.9 L/kg; logD ([22]; octanol/water): 2.6; microsomal CLint [23]: 25 µL/min/mg; hepatocyte CLint [24]: 6.9 µL/min/1e6 cells; bioavailability [25]: 44%; half-life [28]: 4.7 h; Papp A→B [29]: 2.7 ×10⁻⁶ cm/s; IC50 [30]: 657 nM; Activity [31]: Active; hepatocyte CLint [32]: 1.3 µL/min/1e6 cells
3 | C[C@H](C(=O)Nc1cccc2c(-c3nc(Nc4cccc(S(C)(=O)=O)c4F)ncc3F)c[nH]c12)N1CCN(C)CC1 |  |  |  |  |  |  |  |  |  |  |  |  |  | 0.06 |  | 42 nM |  |  |  | 14 µM (≈ 7.97 µg/mL) | IC50 [33]: 56 nM; IC50 [34]: 20 nM; IC50 [35]: 17500 nM; IC50 [36]: > 30000 nM; logD [22, 38]: 2.7
4 | Cc1cnc(Nc2cccc(S(C)(=O)=O)c2F)nc1-c1c[nH]c2c(NC(=O)[C@@H](C)N3CCN(C)CC3)cccc12 |  |  |  |  |  |  |  |  |  |  |  |  |  | 0.06 | Active | 22 nM | 1.5 µM·h | 15 µM (≈ 8.49 µg/mL) | 9.2 L/kg | 15 µM (≈ 8.49 µg/mL) | IC50 [33]: 32 nM; IC50 [34]: ≤ 4 nM; logD [22, 38]: 2.5; efflux ratio [37]: 4.9; Papp A→B [29]: 4.5 ×10⁻⁶ cm/s

From ChEMBL document CHEMBL5365521, “Discovery of the Potent and Selective Inhaled Janus Kinase 1 Inhibitor AZD4604 and Its Preclinical Characterization” (J Med Chem, 2023)
